Where “and” joins values, the source holds several entries; their conditions need not be identical. Identical values can stand only once.
Columns and labels:
Amaranthus retroflexus [1] = assay: Herbicidal activity against 2 to 3 leaf stage Amaranthus retroflexus assessed as inhibition of plant growth at 450 g/ha in greenhouse by postemergence herbicidal activity assay; assay type: functional; conditions: post-emergence, read-out: GI
[2] = tested on: Brassica rapa subsp. oleifera; assay: Herbicidal activity against Brassica rapa subsp. oleifera assessed as inhibition of rape root growth; assay type: functional, organism-based
[3] = biological target: T1, Pyruvate dehydrogenase complex (Pisum sativum, UniProt P52902+P52904); assay: Inhibition of Pisum sativum (pea) PDHc by spectrophotometric assay; assay type: protein-complex assay, Lathyrus oleraceus
T1 sequence (P52902 whole entry): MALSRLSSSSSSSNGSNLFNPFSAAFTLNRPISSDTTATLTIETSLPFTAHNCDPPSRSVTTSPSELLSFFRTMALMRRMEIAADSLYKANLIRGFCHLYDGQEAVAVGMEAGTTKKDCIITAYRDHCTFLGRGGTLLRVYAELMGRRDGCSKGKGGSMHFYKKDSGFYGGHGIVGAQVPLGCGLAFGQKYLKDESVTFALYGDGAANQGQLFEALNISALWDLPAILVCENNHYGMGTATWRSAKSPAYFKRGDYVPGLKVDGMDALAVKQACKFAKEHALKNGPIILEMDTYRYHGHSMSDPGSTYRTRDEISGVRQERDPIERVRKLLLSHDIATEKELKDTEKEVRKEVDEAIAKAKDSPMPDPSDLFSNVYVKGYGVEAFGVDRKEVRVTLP
T1 sequence (P52904 whole entry): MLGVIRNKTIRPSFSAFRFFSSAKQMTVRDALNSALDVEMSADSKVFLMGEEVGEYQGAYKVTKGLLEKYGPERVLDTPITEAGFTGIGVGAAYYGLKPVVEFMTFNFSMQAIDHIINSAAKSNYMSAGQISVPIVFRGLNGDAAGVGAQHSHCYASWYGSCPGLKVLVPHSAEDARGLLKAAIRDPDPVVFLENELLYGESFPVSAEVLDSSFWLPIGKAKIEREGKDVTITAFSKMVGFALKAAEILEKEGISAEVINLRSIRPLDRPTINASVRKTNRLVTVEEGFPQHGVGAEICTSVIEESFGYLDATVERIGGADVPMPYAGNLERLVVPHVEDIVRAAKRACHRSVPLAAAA

Echinochloa crus-galli = assay: Herbicidal activity against 2 to 3 leaf stage Echinochloa crus-galli (barnyard grass) assessed as inhibition of plant growth at 450 g/ha in greenhouse by postemergence herbicidal activity assay; assay type: functional; conditions: for inhibition of growth at 450 g/ha: Echinochloa crus-galli, post-emergence, read-out: GI
[4] = tested on: Brassica rapa subsp. oleifera; assay: Herbicidal activity against Brassica rapa subsp. oleifera assessed as inhibition of rape root growth at 450 g/ha by postemergence herbicidal activity assay; assay type: functional; conditions: post-emergence, read-out: GI
Pisum sativum = assay: Herbicidal activity against 2 to 3 leaf stage Pisum sativum assessed as inhibition of plant growth at 450 g/ha in greenhouse by postemergence herbicidal activity assay; assay type: functional; conditions: Lathyrus oleraceus, post-emergence; read-out: GI
[5] = tested on: Brassica rapa subsp. oleifera; assay: Herbicidal activity against Brassica rapa subsp. oleifera assessed as inhibition of rape root growth at 450 g/ha by pre-emergence herbicidal activity assay; assay type: functional; conditions: read-out: GI
Brassica juncea = assay: Herbicidal activity against two to three-leaf stage Brassica juncea assessed as inhibition of plant growth at 450 g/ha in greenhouse by post-emergence herbicidal activity assay; assay type: functional; conditions: read-out: GI
Amaranthus retroflexus [6] = assay: Herbicidal activity against 2 to 3 leaf stage Amaranthus retroflexus assessed as inhibition of plant growth at 150 g/ha in greenhouse by postemergence herbicidal activity assay; assay type: functional; conditions: post-emergence, read-out: GI
Abutilon theophrasti [7] = assay: Herbicidal activity against two to three-leaf stage Abutilon theophrasti (velvetleaf) assessed as inhibition of plant growth at 150 g/ha in greenhouse by post-emergence herbicidal activity assay; assay type: functional; conditions: read-out: GI
Eclipta prostrata [8] = assay: Herbicidal activity against two to three-leaf stage Eclipta prostrata assessed as inhibition of plant growth at 150 g/ha in greenhouse by post-emergence herbicidal activity assay; assay type: functional; conditions: read-out: GI
[9] = tested on: Brassica rapa subsp. oleifera; assay: Herbicidal activity against two to three-leaf stage Brassica rapa subsp. oleifera assessed as inhibition of plant growth at 150 g/ha in greenhouse by postemergence herbicidal activity assay; assay type: functional; conditions: post-emergence, read-out: GI
Eclipta prostrata [10] = assay: Herbicidal activity against two to three-leaf stage Eclipta prostrata assessed as inhibition of plant growth at 450 g/ha in greenhouse by post-emergence herbicidal activity assay; assay type: functional; conditions: read-out: GI
Abutilon theophrasti [11] = assay: Herbicidal activity against two to three-leaf stage Abutilon theophrasti (velvetleaf) assessed as inhibition of plant growth at 450 g/ha in greenhouse by post-emergence herbicidal activity assay; assay type: functional; conditions: read-out: GI
[12] = Inhibition of Oryza sativa (rice) PDHc by spectrophotometric assay
[13] = tested on: Brassica rapa subsp. oleifera; assay: Herbicidal activity against two to three-leaf stage Brassica rapa subsp. oleifera assessed as inhibition of plant growth at 450 g/ha in greenhouse by postemergence herbicidal activity assay; assay type: functional; conditions: post-emergence, read-out: GI
Oryza sativa = assay: Herbicidal activity against two to three-leaf stage Oryza sativa (rice) assessed as inhibition of plant growth at 450 g/ha in greenhouse by postemergence herbicidal activity assay; assay type: organism-based; conditions: in vivo, other

Compound	inhibition of growth at 450 g/ha (Amaranthus retroflexus [1]) [%]	IC50 [2] [µM]	IC50 [3] [µM]	inhibition of growth at 450 g/ha (Echinochloa crus-galli) [%]	inhibition of growth at 450 g/ha [4] [%]	inhibition of growth at 450 g/ha (Pisum sativum) [%]	inhibition of growth at 450 g/ha [5] [%]	inhibition of growth at 450 g/ha (Brassica juncea) [%]	inhibition of growth at 150 g/ha (Amaranthus retroflexus [6]) [%]	inhibition of growth at 150 g/ha (Abutilon theophrasti [7]) [%]	inhibition of growth at 150 g/ha (Eclipta prostrata [8]) [%]	inhibition of growth at 150 g/ha [9] [%]	inhibition of growth at 450 g/ha (Eclipta prostrata [10]) [%]	inhibition of growth at 450 g/ha (Abutilon theophrasti [11]) [%]	IC50 [12] [µM]	inhibition of growth at 450 g/ha [13] [%]	growth inhibition (GI) (Echinochloa crus-galli)	growth inhibition (GI) (Oryza sativa) [%]
COP(=O)(O)C(O)c1ccco1 (centres undefined)	0	> 4670	> 4670	17.5	20	0	23											
O=C(O)COc1ccc(Cl)cc1Cl [2,4-DICHLOROPHENOXYACETIC ACID]	100	0.0556	> 4530	35	90	97.5	98	100	92	93	90	92.5						
COP(=O)(OC)C(C)OC(=O)COc1ccc(Cl)cc1Cl (centres undefined) [CLACYFOS]	100	0.0344			98	97.5	96	100	91	95	90	92	0	100	867	100	35% and 100%	0
COP(=O)(OC)C(OC(=O)COc1cccc(C(F)(F)F)c1)c1ccccn1 (centres undefined)	77.5		> 2300	0		0		60										0
COP(=O)([O-])C(OC(=O)COc1ccc(Cl)cc1Cl)c1ccco1.[Na+] (centres undefined)	100	0.0396	6.96	50	95	98	96	92.5							41.1			45
CCC(OC(=O)COc1ccc(Cl)cc1Cl)P(=O)([O-])OC.[Na+] (centres undefined)	97			30		90		94.5							18.9			27
COP(=O)(OC)C(O)c1ccco1 (centres undefined)		> 4670			20		25											
COP(=O)([O-])C(C)OC(=O)COc1ccc(Cl)cc1Cl.[Na+] (centres undefined)	98			50		71.5		100							0.29			27
COP(=O)(OC)C(C)O (centres undefined) [DIMETHYL 1-HYDROXYETHYLPHOSPHONATE]		2400			30		36											
COP(=O)(O)C(C)=O [SODIUM METHYL ACETYLPHOSPHONATE]			70															
COP(=O)(O)C(=O)c1ccco1	25	3240	389	25	30	35	20											
CCCC(OC(=O)COc1ccc(Cl)cc1Cl)P(=O)([O-])OC.[Na+] (centres undefined)	97			45		77.5		96							3.26			22
COP(=O)([O-])COC(=O)COc1ccc(Cl)cc1Cl.[Na+]	92			10		52.5		93							29.1			12
